Measured values published in patent publication US6835728B2, “Drug combination for the treatment of depression and related disorders comprising mirtazapine” (Akzo Nobel N.V., priority 2001, dated 2004).
Marks after values point to notes of the source that are not given here.

Columns and labels:
Assay type in all cases: in vivo
Sprague-Dawley rats [1] = assay: EEG sleep-waking behaviour test in rats; conditions: rat, I.P., change over control
Description: The aim of this test was to characterise the effects on rat sleep-waking behaviour of gepirone alone and of gepirone after co-administration with mirtazapine. To this end additionally the effects of mirtazapine on it own were investigated. Sleep-waking behaviour was analysed by using electroencephalographic (EEG) recordings, electromyographic (EMG) recordings, and by recording a movement index. On the basis of these signals sleep-waking behaviour was automatically classified per 2 second periods into 6 classes: active waking, passive waking, light sleep, deep sleep, intermediate stage sleep and REM sleep (Ruigt et al. A large scale automated system for rat sleep staging. I. Methodology and technical aspects. Electroenceph. and Clin. Neurophysiol.; 1989; 73:52-64). Each experiment is performed simultaneously on 32 adult male Sprague-Dawley rats (Harlan Olac, Bicester, UK, weighing […]), subdivided into four treatment groups. Throughout the whole experiment the animals stay in recording cages and are only taken out to be injected with vehicle or test compound(s). Each experiment contains three sessions. The first session (“test session”), commencing at 10:00 AM with a variable duration of 2-5 hours, serves as adaptation period and is used to assess the quality of the EEG and EMG signals recorded. The second and third sessions both start at 2:30 PM on two consecutive days and have a duration of 15.5 hours each. At the start of the second session all groups receive a vehicle treatment, at the start of the third session all groups receive their test compound(s). One of the treatment groups usually receives the vehicle treatment in both sessions to serve as a baseline for the other groups in the experiment. Separate experiments were done in which different single I.P. administered doses of either gepirone (1.0, 3.0, 10.0 mg/kg), or mirtazapine (2.2, 4.6, 10 mg/kg), or mirtazapine (2.2 mg/kg) in combination with gepirone (1.0, 3.0, 10 mg/kg) were tested. Gepirone was dissolved in 0.9% NaCl m/v in water (saline); mirtazapine was dissolved in 5% m/v Mulgofen (EL 719, GAF) in saline (=0.9% m/v NaCl in water). The drug-induced changes in sleep waking behaviours after I.P. administration of mirtazapine, gepirone, and mirtazapine in combination with gepirone are presented in Tables II, III and IV. […]

mice = assay: Defensive (marble) burying test in mice; conditions: mouse, administered alone, S.C., pre-treatment 30 min
Excerpt: Marble burying has been developed and validated as a pre-clinical assay of potential anxiolytic activity (Andrews and Broekkamp (1993). Procedures to identify anxiolytic or anxiogenic agents. In Behavioural Neuroscience, ed. A Sahgal, pp. 37-54. IRL Press, Oxford). The marble burying test places a naive mouse into a novel environment containing 25 marbles (arranged on top of a saw dust surface). A reduction in the number of marbles buried by the mouse has been hypothesised to be an anxiolytic-like/anti-depressant-like effect.
A further series of three separate experiments were conducted during which three single doses of mirtazapine (0.3, 1, 3 mg.kg^−1) were co-administered S.C. with a range of S.C. gepirone doses (0, 0.1, 0.3, 1, 3 mg.kg^−1).

Sprague-Dawley rats [2] = assay: Psychotropic drug class prediction by discriminant analysis of effects on rat sleep-waking behaviour; conditions: I.P.
Description: The effect profiles for these compounds at active doses were subjected to a discriminant analysis over these 6 psychoactive classes with placebo being added as an extra class. The resulting discriminant function was used to predict the pharmaco-therapeutic application area for gepirone alone and after co-administration with mirtazapine. Finally, the effect profiles of gepirone, mirtazapine, and the combination of gepirone and mirtazapine were calculated on the basis of vectors derived from the changes in sleep-wake organisation as shown in tables above. For each dose, the probability that the compound belongs to one of 7 defined classes was calculated.

[3] = gepir 1.0 mg/kg, 0 to 3 hours after drug injection
[4] = gepir 1.0 mg/kg, 3 to 6 hours after drug injection
[5] = gepir 1.0 mg/kg, 9 to 15 hours after drug injection
[6] = gepir 3.0 mg/kg, 0 to 3 hours after drug injection
[7] = gepir 3.0 mg/kg, 3 to 6 hours after drug injection
[8] = gepir 3.0 mg/kg, 9 to 15 hours after drug injection
[9] = gepir 10.0 mg/kg, 0 to 3 hours after drug injection
[10] = gepir 10.0 mg/kg, 3 to 6 hours after drug injection
[11] = gepir 10.0 mg/kg, 9 to 15 hours after drug injection
[12] = mirt 2.2 mg/kg, 0 to 3 hours after drug injection
[13] = mirt 2.2 mg/kg, 3 to 6 hours after drug injection
[14] = mirt 2.2 mg/kg, 9 to 15 hours after drug injection

CC1(C)CC(=O)N(CCCCN2CCN(c3ncccn3)CC2)C(=O)C1 [Gepirone, gepirone]
Latency from time of injection to Deep sleep (Sprague-Dawley rats [1]; [3]): 24% | Latency from time of injection to REM sleep (Sprague-Dawley rats [1]; [3]): 3% | Median duration Active waking (Sprague-Dawley rats [1]; [3]): −58* % | Median duration Deep sleep (Sprague-Dawley rats [1]; [3]): −2% | Median duration Intermediate sleep (Sprague-Dawley rats [1]; [3]): −11% | Median duration Light sleep (Sprague-Dawley rats [1]; [3]): 23% | Median duration Passive waking (Sprague-Dawley rats [1]; [3]): 13% | Median duration REM sleep (Sprague-Dawley rats [1]; [3]): 4% | Median duration Active waking (Sprague-Dawley rats [1]; [4]): 6% | Median duration Deep sleep (Sprague-Dawley rats [1]; [4]): −5% | Median duration Intermediate sleep (Sprague-Dawley rats [1]; [4]): 32% | Median duration Light sleep (Sprague-Dawley rats [1]; [4]): 8% | Median duration Passive waking (Sprague-Dawley rats [1]; [4]): 5% | Median duration REM sleep (Sprague-Dawley rats [1]; [4]): 20% | Median duration Deep sleep (Sprague-Dawley rats [1]; [5]): 2% | Median duration Intermediate sleep (Sprague-Dawley rats [1]; [5]): −2% | Median duration Light sleep (Sprague-Dawley rats [1]; [5]): 14% | Median duration Passive waking (Sprague-Dawley rats [1]; [5]): 38% | Median duration REM sleep (Sprague-Dawley rats [1]; [5]): −12% | Median duration Active waking (Sprague-Dawley rats [1]; gepir 1.0 mg/kg): −16% | Latency from time of injection to Deep sleep (Sprague-Dawley rats [1]; [6]): 24% | Latency from time of injection to REM sleep (Sprague-Dawley rats [1]; [6]): 360* % | Median duration Active waking (Sprague-Dawley rats [1]; [6]): −8% | Median duration Deep sleep (Sprague-Dawley rats [1]; [6]): −21% | Median duration Intermediate sleep (Sprague-Dawley rats [1]; [6]): −76% | Median duration Light sleep (Sprague-Dawley rats [1]; [6]): 8% | Median duration Passive waking (Sprague-Dawley rats [1]; [6]): 156* % | Median duration REM sleep (Sprague-Dawley rats [1]; [6]): −83* % | Median duration Active waking (Sprague-Dawley rats [1]; [7]): 30% | Median duration Deep sleep (Sprague-Dawley rats [1]; [7]): −6% | Median duration Intermediate sleep (Sprague-Dawley rats [1]; [7]): 64* % | Median duration Light sleep (Sprague-Dawley rats [1]; [7]): −2% | Median duration Passive waking (Sprague-Dawley rats [1]; [7]): 13% | Median duration REM sleep (Sprague-Dawley rats [1]; [7]): −3% | Median duration Active waking (Sprague-Dawley rats [1]; [8]): −37* % | Median duration Deep sleep (Sprague-Dawley rats [1]; [8]): −7% | Median duration Intermediate sleep (Sprague-Dawley rats [1]; [8]): 36% | Median duration Light sleep (Sprague-Dawley rats [1]; [8]): 67% | Median duration Passive waking (Sprague-Dawley rats [1]; [8]): 55% | Median duration REM sleep (Sprague-Dawley rats [1]; [8]): 40% | Latency from time of injection to Deep sleep (Sprague-Dawley rats [1]; [9]): 268% | Latency from time of injection to REM sleep (Sprague-Dawley rats [1]; [9]): 673* % | Median duration Active waking (Sprague-Dawley rats [1]; [9]): 72% | Median duration Deep sleep (Sprague-Dawley rats [1]; [9]): −63* % | Median duration Intermediate sleep (Sprague-Dawley rats [1]; [9]): −100* % | Median duration Light sleep (Sprague-Dawley rats [1]; [9]): −2% | Median duration Passive waking (Sprague-Dawley rats [1]; [9]): 198% | Median duration REM sleep (Sprague-Dawley rats [1]; [9]): −100* % | Median duration Active waking (Sprague-Dawley rats [1]; [10]): −18% | Median duration Deep sleep (Sprague-Dawley rats [1]; [10]): −19% | Median duration Intermediate sleep (Sprague-Dawley rats [1]; [10]): 56% | Median duration Light sleep (Sprague-Dawley rats [1]; [10]): 35% | Median duration Passive waking (Sprague-Dawley rats [1]; [10]): −40% | Median duration REM sleep (Sprague-Dawley rats [1]; [10]): −50* % | Median duration Active waking (Sprague-Dawley rats [1]; [11]): −23* % | Median duration Deep sleep (Sprague-Dawley rats [1]; [11]): −5% | Median duration Intermediate sleep (Sprague-Dawley rats [1]; [11]): 108* % | Median duration Light sleep (Sprague-Dawley rats [1]; [11]): 23% | Median duration Passive waking (Sprague-Dawley rats [1]; [11]): 7% | Median duration REM sleep (Sprague-Dawley rats [1]; [11]): 64% | ED50 marble burying (mice): 2.16 mg/kg | Probability score AC (anticonvulsant) (Sprague-Dawley rats [2]; gepirone 1.0 mg/kg): 7% | Probability score AD (antidepressant) (Sprague-Dawley rats [2]; gepirone 1.0 mg/kg): 1% | Probability score APS (antipsychotic) (Sprague-Dawley rats [2]; gepirone 1.0 mg/kg): 31% | Probability score AXL (anxiolytic) (Sprague-Dawley rats [2]; gepirone 1.0 mg/kg): 6% | Probability score HYP (hypnotic) (Sprague-Dawley rats [2]; gepirone 1.0 mg/kg): 20% | Probability score PLAC (placebo) (Sprague-Dawley rats [2]; gepirone 1.0 mg/kg): 35% | Probability score STIM (stimulant) (Sprague-Dawley rats [2]; gepirone 1.0 mg/kg): 0% | Probability score AC (anticonvulsant) (Sprague-Dawley rats [2]; gepirone 3.0 mg/kg): 29% | Probability score AD (antidepressant) (Sprague-Dawley rats [2]; gepirone 3.0 mg/kg): 28% | Probability score APS (antipsychotic) (Sprague-Dawley rats [2]; gepirone 3.0 mg/kg): 14% | Probability score AXL (anxiolytic) (Sprague-Dawley rats [2]; gepirone 3.0 mg/kg): 15% | Probability score HYP (hypnotic) (Sprague-Dawley rats [2]; gepirone 3.0 mg/kg): 9% | Probability score PLAC (placebo) (Sprague-Dawley rats [2]; gepirone 3.0 mg/kg): 6% | Probability score STIM (stimulant) (Sprague-Dawley rats [2]; gepirone 3.0 mg/kg): 0% | Probability score AC (anticonvulsant) (Sprague-Dawley rats [2]; gepirone 10.0 mg/kg): 6% | Probability score AD (antidepressant) (Sprague-Dawley rats [2]; gepirone 10.0 mg/kg): 16% | Probability score APS (antipsychotic) (Sprague-Dawley rats [2]; gepirone 10.0 mg/kg): 3% | Probability score AXL (anxiolytic) (Sprague-Dawley rats [2]; gepirone 10.0 mg/kg): 63% | Probability score HYP (hypnotic) (Sprague-Dawley rats [2]; gepirone 10.0 mg/kg): 0% | Probability score PLAC (placebo) (Sprague-Dawley rats [2]; gepirone 10.0 mg/kg): 0% | Probability score STIM (stimulant) (Sprague-Dawley rats [2]; gepirone 10.0 mg/kg): 12%

CN1CCN2c3ncccc3Cc3ccccc3C2C1 (centres unmarked) [Mirtazapine, mirtazapine]
Latency from time of injection to Deep sleep (Sprague-Dawley rats [1]; [12]): −36% | Latency from time of injection to REM sleep (Sprague-Dawley rats [1]; [12]): 27% | Median duration Active waking (Sprague-Dawley rats [1]; [12]): 19% | Median duration Deep sleep (Sprague-Dawley rats [1]; [12]): 13% | Median duration Intermediate sleep (Sprague-Dawley rats [1]; [12]): −85* % | Median duration Light sleep (Sprague-Dawley rats [1]; [12]): 7% | Median duration Passive waking (Sprague-Dawley rats [1]; [12]): −5% | Median duration REM sleep (Sprague-Dawley rats [1]; [12]): −88* % | Median duration Active waking (Sprague-Dawley rats [1]; [13]): 68% | Median duration Deep sleep (Sprague-Dawley rats [1]; [13]): 19% | Median duration Intermediate sleep (Sprague-Dawley rats [1]; [13]): −74* % | Median duration Light sleep (Sprague-Dawley rats [1]; [13]): 10% | Median duration Passive waking (Sprague-Dawley rats [1]; [13]): 17% | Median duration REM sleep (Sprague-Dawley rats [1]; [13]): −52* % | Median duration Active waking (Sprague-Dawley rats [1]; [14]): −16% | Median duration Deep sleep (Sprague-Dawley rats [1]; [14]): 20% | Median duration Light sleep (Sprague-Dawley rats [1]; [14]): 27% | Median duration Passive waking (Sprague-Dawley rats [1]; [14]): −8% | Median duration REM sleep (Sprague-Dawley rats [1]; [14]): 22% | Median duration Intermediate sleep (Sprague-Dawley rats [1]; mirt 2.2 mg/kg): 111% | ED50 marble burying (mice): 5.5 mg/kg | Probability score AC (anticonvulsant) (Sprague-Dawley rats [2]; mirtazapine 2.2 mg/kg): 9% | Probability score AD (antidepressant) (Sprague-Dawley rats [2]; mirtazapine 2.2 mg/kg): 22% | Probability score APS (antipsychotic) (Sprague-Dawley rats [2]; mirtazapine 2.2 mg/kg): 3% | Probability score AXL (anxiolytic) (Sprague-Dawley rats [2]; mirtazapine 2.2 mg/kg): 20% | Probability score HYP (hypnotic) (Sprague-Dawley rats [2]; mirtazapine 2.2 mg/kg): 29% | Probability score PLAC (placebo) (Sprague-Dawley rats [2]; mirtazapine 2.2 mg/kg): 16% | Probability score STIM (stimulant) (Sprague-Dawley rats [2]; mirtazapine 2.2 mg/kg): 0%
